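Following 48 hours of exposure in 96-well plates, responses at five concentrations were used to interpolate endpoints linearly. TGI denotes the concentration required for complete inhibition of growth.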
Columns and labels:
Assay in all cases: inhibition of tumour cell growth, NCI panel, 48 h
OVCAR-8 ovarian = test system: OVCAR-8 ovarian
LXFL 529 NSCLC = test system: LXFL 529 NSCLC
KM20L2 colon = test system: KM20L2 colon
M19-MEL melanoma = test system: M19-MEL melanoma
MDA-MB-435 = test system: MDA-MB-435
HOP-18 NSCLC = test system: HOP-18 NSCLC
CAKI-1 renal = test system: CAKI-1 renal
SF-268 CNS = test system: SF-268 CNS
MCF7 breast = test system: MCF7 breast
DMS 114 small cell lung = test system: DMS 114 small cell lung
BT-549 breast = test system: BT-549 breast
LOX IMVI melanoma = test system: LOX IMVI melanoma
DLD-1 colon = test system: DLD-1 colon

COc1cc(NS(C)(=O)=O)ccc1Nc1c2ccccc2nc2c1[nH]c1ccc(NC3OC(CO)C(O)C(O)C3O)cc12 (stereo not drawn)
TGI (OVCAR-8 ovarian): 950 nM | TGI (LXFL 529 NSCLC): 2460 nM | TGI (KM20L2 colon): 1870 nM | TGI (M19-MEL melanoma): 1750 nM | TGI (MDA-MB-435): 7.06 µM | TGI (HOP-18 NSCLC): 1650 nM | TGI (CAKI-1 renal): 91 nM | TGI (SF-268 CNS): 1510 nM | TGI (MCF7 breast): 10.1 µM | TGI (DMS 114 small cell lung): 78.4 nM | TGI (BT-549 breast): 5.69 µM | TGI (LOX IMVI melanoma): 1180 nM | TGI (DLD-1 colon): 1930 nM

CCOc1ccccc1NC(=O)C(=O)CC(=O)c1sc(Nc2nnc(-c3ccc(Cl)c(Cl)c3)o2)nc1C
TGI (OVCAR-8 ovarian): > 100000 nM | TGI (LXFL 529 NSCLC): > 100000 nM | TGI (KM20L2 colon): > 100000 nM | TGI (M19-MEL melanoma): > 100000 nM | TGI (HOP-18 NSCLC): > 100000 nM | TGI (CAKI-1 renal): > 100000 nM | TGI (SF-268 CNS): > 100000 nM | TGI (DMS 114 small cell lung): > 100000 nM | TGI (LOX IMVI melanoma): > 100000 nM | TGI (DLD-1 colon): > 100000 nM
